Assay [1] deals with MDA-MB-453. Briefly: drug sensitivity score (DSS), in combination with BLU9931 (DSS (weighted AUC score)); higher = more sensitive (stronger viability decrease); extreme values may be limits of the assay. The following applies: BLU9931 100 nM; 72 h. In outline:
(§1)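 Drug sensitivity scores come from a weighted area under a four-parameter logistic fit to percent viability, normalised per plate to control wells. Viability was based on cellular ATP read with CellTiterGlo 2.0 after 72 h at 37 °C, 5% CO2. Each 384-well plate carried FIMM Oncology set compounds in singlicate at five 10-fold dilutions, with 2000 MDA-MB-453 cells per well in medium with or without an FGFR4 inhibitor at 100 nM final.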

In assay [2] the test system is MDA-MB-453. Nature of the assay: drug sensitivity score (DSS), single agent (DSS (weighted AUC score)); higher = more sensitive (stronger viability decrease); extreme values may be limits of the assay. The following applies: BLU9931 0 nM; 72 h. In outline: as §1

With `CO[C@H]1C[C@@H]2CC[C@@H](C)[C@@](O)(O2)C(=O)C(=O)N2CCCC[C@H]2C(=O)O[C@H]([C@H](C)C[C@@H]2CC[C@@H](OCCO)[C@H](OC)C2)CC(=O)[C@H](C)/C=C(\C)[C@@H](O)[C@@H](OC)C(=O)[C@H](C)C[C@H](C)/C=C/C=C/C=C/1C` [Everolimus], the figures for the drug sensitivity score in the assay with MDA-MB-453 [1] and in the assay with MDA-MB-453 [2] were 13.6 and 9.5, respectively.

As for `CCn1cc(-c2ccnc3[nH]c(-c4cccc(CN(C)C)c4)cc23)c(-c2ccc(NC(=O)N(C)C)cc2)n1`, the drug sensitivity score in the assay on MDA-MB-453 [1] and with MDA-MB-453 [2] was 1 in each case.

`Cn1cc(-c2cnn3c(N)c(Br)c([C@@H]4CCCNC4)nc23)cn1` [MK-8776]: the values for the drug sensitivity score with MDA-MB-453 [1] and in the assay on MDA-MB-453 [2] were 1.3 and 1.1, respectively.

Consider `Nc1ncnc2c1nc(N)n2[C@@H]1O[C@H](CO)[C@@H](O)[C@H]1O` [8-amino-adenosine], for which the drug sensitivity score in the assay with MDA-MB-453 [1] came out at 25; in the assay on MDA-MB-453 [2], 22.4.

`O=C(Nc1cccc(NC(=O)c2cccc(O)c2O)c1)c1cccc(O)c1O` [MST-312]: the values for the drug sensitivity score in the assay with MDA-MB-453 [1] and in the assay on MDA-MB-453 [2] were 9.7 and 10, respectively.

`O=C(Nc1ccc(OC(F)(F)Cl)cc1)c1cnc(N2CC[C@@H](O)C2)c(-c2cc[nH]n2)c1` [Asciminib]: the drug sensitivity score with MDA-MB-453 [1] worked out at 1.2; in the assay on MDA-MB-453 [2], 3.4.

Consider `O=C(O)CCCCC(CCSCc1ccccc1)SCc1ccccc1` (stereo unspecified) [CPI-613], for which the drug sensitivity score in the assay with MDA-MB-453 [1] and in the assay on MDA-MB-453 [2] was 0 each time.

For `COC(=O)C[C@](O)(CCCC(C)(C)O)C(=O)O[C@@H]1C(OC)=C[C@]23CCCN2CCc2cc4c(cc2[C@H]13)OCO4` [Omacetaxine], the results for the drug sensitivity score in the assay on MDA-MB-453 [1] and in the assay on MDA-MB-453 [2] were 20.5 and 22.1, respectively.

As for `COc1cc2nccc(Oc3ccc(NC(=O)Nc4cc(C)on4)c(Cl)c3)c2cc1OC` [Tivozanib], the drug sensitivity score is 1.4 with MDA-MB-453 [1] and 2.8 in the assay with MDA-MB-453 [2].

With `CC1(C)CC[C@]2(NC(=O)C(C)(F)F)CC[C@]3(C)[C@H](C(=O)C=C4[C@@]5(C)C=C(C#N)C(=O)C(C)(C)[C@@H]5CC[C@]43C)[C@@H]2C1` [Omaveloxolone], the drug sensitivity score turned out to be 13.5 in the assay with MDA-MB-453 [1] and 14.3 in the assay with MDA-MB-453 [2].

Turning to `Cc1ccc(NC(=O)c2ccc(CN3CCN(C)CC3)cc2)cc1Nc1nccc(-c2cccnc2)n1` [Imatinib], the drug sensitivity score in the assay on MDA-MB-453 [1] was found to be 0.1; in the assay with MDA-MB-453 [2] it was 0.9.

As to `C[C@@H]1CN(Cc2ccc(F)cc2)[C@@H](C)CN1C(=O)c1cc2c(C(=O)C(=O)N(C)C)cn(C)c2cc1Cl` [Talmapimod], the drug sensitivity score with MDA-MB-453 [1] and in the assay on MDA-MB-453 [2] was 0 in each case.

`C[C@@H](Oc1cc(-c2cnn(C3CCNCC3)c2)cnc1N)c1c(Cl)ccc(F)c1Cl` [Crizotinib]: the drug sensitivity score in the assay on MDA-MB-453 [1] and in the assay on MDA-MB-453 [2] was 0 in each case.

As to `Cc1c(-c2c(-c3ccc(F)o3)sc3ncnc(O[C@H](Cc4ccccc4OCc4ccnn4CC(F)(F)F)C(=O)O)c23)ccc(OCCN2CCN(C)CC2)c1Cl`, the drug sensitivity score turned out to be 3.3 in the assay on MDA-MB-453 [1] and 4.2 in the assay with MDA-MB-453 [2].

Consider `O=C(CCCCCCC(=O)Nc1ccc([C@H]2O[C@@H](CSc3nc(-c4ccccc4)c(-c4ccccc4)o3)C[C@@H](c3ccc(CO)cc3)O2)cc1)NO` [Tubacin], for which the drug sensitivity score came out at 1.7 in the assay on MDA-MB-453 [1] and 2 in the assay on MDA-MB-453 [2].

Turning to `S=C(NCc1ccc2c(c1)OCO2)N1CCN(c2ncnc3c2oc2ccccc23)CC1` [Amuvatinib], the drug sensitivity score with MDA-MB-453 [1] worked out at 0.3; in the assay with MDA-MB-453 [2], 3.3.

Take `FC(F)c1nc2ccccc2n1-c1nc(N2CCOCC2)nc(N2CCOCC2)n1` [ZSTK474]: the drug sensitivity score worked out at 15.6 with MDA-MB-453 [1] and 14.9 in the assay on MDA-MB-453 [2].

`CC1(C)CCC(c2ccc(Cl)cc2)=C(CN2CCN(c3ccc(C(=O)NS(=O)(=O)c4ccc(N[C@H](CCN5CCOCC5)CSc5ccccc5)c(S(=O)(=O)C(F)(F)F)c4)cc3)CC2)C1` [Navitoclax]: the drug sensitivity score in the assay with MDA-MB-453 [1] was 2.4; in the assay on MDA-MB-453 [2], 0.3.

Consider `COc1ccc(C[C@H](NC(=O)[C@H](C)NC(=O)CN2CCOCC2)C(=O)N[C@@H](Cc2ccccc2)C(=O)C2(C)CO2)cc1` (stereo in doubt) [ONX-0914], for which the drug sensitivity score is 13.8 in the assay with MDA-MB-453 [1] and 14.7 in the assay with MDA-MB-453 [2].

On to `CC(C)(O)CC(=O)NCCn1ccc2ncnc(Nc3ccc(Oc4cccc(C(F)(F)F)c4)c(Cl)c3)c21` [TAK-285], for which the drug sensitivity score in the assay on MDA-MB-453 [1] worked out at 6.4; in the assay with MDA-MB-453 [2], 5.4.

`O=C(O)C1(C(=O)O)CCC1.[NH2-].[NH2-].[Pt+2]` [Carboplatin]: the drug sensitivity score in the assay on MDA-MB-453 [1] worked out at 2.6; with MDA-MB-453 [2] it was 2.2.

For `Cc1[nH]c2ccccc2c1CCNCc1ccc(/C=C/C(=O)NO)cc1` [Panobinostat], the drug sensitivity score was found to be 22.4 in the assay with MDA-MB-453 [1] and 22.2 in the assay on MDA-MB-453 [2].

`CC(C)(C)Cn1c(N)nc2ccc(-c3[nH]c(C(C)(C)C)nc3-c3ccc(F)cc3)nc21` [Ralimetinib]: the results for the drug sensitivity score with MDA-MB-453 [1] and in the assay on MDA-MB-453 [2] were 0.8 and 1.8, respectively.

As for `CS(=O)(=O)c1ccc(-c2cnc(N)c(C(=O)Nc3ccccc3)n2)cc1` [VE-821], the drug sensitivity score with MDA-MB-453 [1] amounted to 4.7; in the assay with MDA-MB-453 [2] it was 2.

With `CCCOc1ccn2c(C(C)=O)cc(-c3ccccc3S(C)(=O)=O)c2c1` [GSK2801], the drug sensitivity score in the assay with MDA-MB-453 [1] and in the assay on MDA-MB-453 [2] was 0 throughout.

Turning to `N#CCNC(=O)c1ccc(-c2ccnc(Nc3ccc(N4CCOCC4)cc3)n2)cc1` [Momelotinib], the figures for the drug sensitivity score in the assay on MDA-MB-453 [1] and in the assay with MDA-MB-453 [2] were 2.2 and 4.7, respectively.

Turning to `CCN(CC)CCCC(C)Nc1c2ccc(Cl)cc2nc2ccc(OC)cc12` (stereo unspecified) [Mepacrine], the results for the drug sensitivity score in the assay on MDA-MB-453 [1] and in the assay on MDA-MB-453 [2] were 14.7 and 16.2, respectively.

Take `Cc1ncc(-c2ccnc(Nc3ccc(S(C)(=O)=O)cc3)n2)n1C(C)C` [AZD-5438]: the drug sensitivity score in the assay with MDA-MB-453 [1] amounted to 7.9; in the assay on MDA-MB-453 [2], 6.1.

For `CNS(=O)(=O)Nc1nccc(Cc2c(C)c3ccc(Oc4ncccn4)cc3oc2=O)c1F`, the values for the drug sensitivity score in the assay on MDA-MB-453 [1] and in the assay on MDA-MB-453 [2] were 0.2 and 0.5, respectively.

For `Cc1nc(NC(=O)N2CCC[C@H]2C(N)=O)sc1-c1ccnc(C(C)(C)C(F)(F)F)c1` [Alpelisib], the drug sensitivity score in the assay on MDA-MB-453 [1] was 8; with MDA-MB-453 [2] it was 7.2.

Regarding `CC(C)NC[C@@H](C(=O)N1CCN(c2ncnc3c2[C@H](C)C[C@H]3O)CC1)c1ccc(Cl)cc1` [Ipatasertib], the drug sensitivity score with MDA-MB-453 [1] was found to be 12; in the assay with MDA-MB-453 [2], 11.

Regarding `C[C@@H](Nc1cc(F)cc(F)c1)c1cc(C(=O)N(C)C)cc2c(=O)cc(N3CCOCC3)oc12` [AZD-8186], the drug sensitivity score in the assay with MDA-MB-453 [1] turned out to be 2.3; in the assay with MDA-MB-453 [2], 1.7.

Consider `CN(C)Cc1ccc(S(=O)(=O)n2ccc(/C=C/C(=O)NO)c2)cc1` [Resminostat], for which the drug sensitivity score in the assay with MDA-MB-453 [1] was found to be 16.2; in the assay on MDA-MB-453 [2] it was 16.

Regarding `COc1cc(OC)cc(N(CCNC(C)C)c2ccc3ncc(-c4cnn(C)c4)nc3c2)c1` [Erdafitinib], the results for the drug sensitivity score in the assay with MDA-MB-453 [1] and in the assay on MDA-MB-453 [2] were 0.2 and 4.3, respectively.

Regarding `CC(=O)OC[C@H]1O[C@@H]([S-])[C@H](OC(C)=O)[C@@H](OC(C)=O)[C@@H]1OC(C)=O.CCP(CC)CC.[Au+]` [Auranofin], the drug sensitivity score with MDA-MB-453 [1] came to 8.8; in the assay with MDA-MB-453 [2], 8.9.

For `COc1ncc(-c2ccc3nccc(-c4ccnnc4)c3c2)cc1NS(=O)(=O)c1ccc(F)cc1F` [Omipalisib], the drug sensitivity score turned out to be 25.1 in the assay with MDA-MB-453 [1] and 23 in the assay on MDA-MB-453 [2].

In the case of `O=c1sn(-c2cccc3ccccc23)c(=O)n1Cc1ccccc1` [Tideglusib], the drug sensitivity score in the assay with MDA-MB-453 [1] and in the assay on MDA-MB-453 [2] was 0 in each case.

On to `CC(C)Nc1cc(-c2c[nH]c(C(=O)N[C@H](CO)c3cccc(Cl)c3)c2)c(Cl)cn1` [Ulixertinib], for which the drug sensitivity score came out at 0.5 in the assay on MDA-MB-453 [1] and 3.5 in the assay with MDA-MB-453 [2].

Consider `O=C(NOCCO)c1ccc2cncn2c1Nc1ccc(I)cc1F` [GDC-0623], for which the drug sensitivity score in the assay with MDA-MB-453 [1] came to 0.5; in the assay with MDA-MB-453 [2], 0.4.

`CCCCCOC(=O)Nc1nc(=O)n([C@@H]2O[C@H](C)[C@@H](O)[C@H]2O)cc1F` [Capecitabine]: the drug sensitivity score worked out at 0.2 in the assay on MDA-MB-453 [1] and 2.3 with MDA-MB-453 [2].

Turning to `C[C@@]1(C(=O)Nc2ccc(F)nc2)CCCN1c1nc(Nc2cc(C3CC3)n[nH]2)c2cccn2n1`, the drug sensitivity score in the assay with MDA-MB-453 [1] and with MDA-MB-453 [2] was 0 throughout.

Turning to `CC(C)Oc1ccc(-c2nn([C@@H](C)c3oc4ccc(F)cc4c(=O)c3-c3cccc(F)c3)c3ncnc(N)c23)cc1F` [TGR-1202], the drug sensitivity score with MDA-MB-453 [1] is 0; in the assay with MDA-MB-453 [2] it was 0.7.

Consider `CC(C)Cn1cnc2c(N)nc3ccccc3c21` [Imiquimod], for which the drug sensitivity score with MDA-MB-453 [1] and in the assay with MDA-MB-453 [2] was 0 each time.

The values above are taken from the supplement of paper PMC7224384.
